The values below come from PMC3716717, “The molecular basis for recognition of bacterial ligands at equine TLR2, TLR1 and TLR6” (Veterinary Research, 2013).

Format in all cases: cell-based
One assay concerns equine TLR2/1. Description: NF-κB dual luciferase reporter assay in SW620 cells transfected with equine TLR2+TLR1+CD14. As to conditions: for EC50: SW620 cells, equine TLR2+TLR1+CD14, 6 h stimulation, NF-κB luciferase, normalised curves. On the procedure: SW620 cells (a gift from Richard Tapping, USA) were utilised for TLR2/1 and TLR2/6 transient transfection experiments, as, unlike HEK293 cells, they are 1) deficient in significant expression of all three receptors, and 2) poorly responsive to Pam2CSK4 and Pam3CSK4 without exogenously added TLRs (Additional file 1). […] SW620 cells were seeded at 3.75 × 10^4 cells per well of a 48 well plate and transiently transfected 24 hours later using Fugene 6 (Promega) at a ratio of 1 μg DNA: 4 μL Fugene 6. For transfection, expression vectors containing cDNA encoding human (in pFLAG-CMV) or equine (in pcDNA3) TLR2, -1 and -6, and CD14 (in pcDNA3), were mixed as appropriate. TLR cDNA-containing vectors were used at 2.5 ng/well; CD14 cDNA-containing vectors were used at 1.25 ng/well. TLR constructs were replaced with empty vector (pcDNA3), as appropriate, to balance total added DNA amounts. Reporter constructs pNF-κB-luc (Clontech; 25 ng/well) and ph-RG-TK (Promega; 12.5 ng/well), encoding firefly luciferase under an NF-κB promoter and constitutively expressed Renilla luciferase respectively, were then added to all receptor mixtures, together with 10× Tris-EDTA (TE). Following mixing of DNA, and per 4 wells, 0.7 μL Fugene 6 was diluted to 10 μL in serum- and antibiotic-free RPMI and incubated for 5 min. DNA mixtures were then added to the Fugene 6/RPMI mixtures and incubated for 30 min at room temperature. Following incubation, transfection mixtures were diluted to 1 mL per 4 wells in complete SW620 medium. […] Cells were stimulated for six hours, lysed using diluted passive lysis buffer (PLB; Promega), and NF-κB activation measured by the dual luciferase reporter assay (Promega). […]
(§1) SW620 cells were transiently transfected with reporter constructs and one of four receptor combinations: human TLR2+TLR1+CD14, human TLR2+TLR6+CD14, equine TLR2+TLR1+CD14 or equine TLR2+TLR6+CD14, and stimulated with increasing doses of ligand. EC50 and maximum stimulation values were determined at each heterodimer as measures of ligand potency and efficacy respectively.

The next assay addresses T1, human TLR2/6 (Homo sapiens, UniProt O60603+Q9Y2C9).
T1 construct: FLAG (from vector pFLAG-CMV); expressed in transfected cells; host or cells: SW620 (human)
Description: NF-κB dual luciferase reporter assay in SW620 cells transfected with human TLR2+TLR6+CD14. On the procedure:
(§2) SW620 cells (a gift from Richard Tapping, USA) were utilised for TLR2/1 and TLR2/6 transient transfection experiments, as, unlike HEK293 cells, they are 1) deficient in significant expression of all three receptors, and 2) poorly responsive to Pam2CSK4 and Pam3CSK4 without exogenously added TLRs (Additional file 1). […] SW620 cells were seeded at 3.75 × 10^4 cells per well of a 48 well plate and transiently transfected 24 hours later using Fugene 6 (Promega) at a ratio of 1 μg DNA: 4 μL Fugene 6. For transfection, expression vectors containing cDNA encoding human (in pFLAG-CMV) or equine (in pcDNA3) TLR2, -1 and -6, and CD14 (in pcDNA3), were mixed as appropriate. TLR cDNA-containing vectors were used at 2.5 ng/well; CD14 cDNA-containing vectors were used at 1.25 ng/well. […] Cells were stimulated for six hours, lysed using diluted passive lysis buffer (PLB; Promega), and NF-κB activation measured by the dual luciferase reporter assay (Promega). […]
as §1

For the next assay, the target named is T2, human TLR2/1 (Homo sapiens, UniProt O60603+Q15399).
T2 construct: FLAG (from vector pFLAG-CMV); expressed in transfected cells; host or cells: SW620 (human)
T2 sequence (O60603 21-784): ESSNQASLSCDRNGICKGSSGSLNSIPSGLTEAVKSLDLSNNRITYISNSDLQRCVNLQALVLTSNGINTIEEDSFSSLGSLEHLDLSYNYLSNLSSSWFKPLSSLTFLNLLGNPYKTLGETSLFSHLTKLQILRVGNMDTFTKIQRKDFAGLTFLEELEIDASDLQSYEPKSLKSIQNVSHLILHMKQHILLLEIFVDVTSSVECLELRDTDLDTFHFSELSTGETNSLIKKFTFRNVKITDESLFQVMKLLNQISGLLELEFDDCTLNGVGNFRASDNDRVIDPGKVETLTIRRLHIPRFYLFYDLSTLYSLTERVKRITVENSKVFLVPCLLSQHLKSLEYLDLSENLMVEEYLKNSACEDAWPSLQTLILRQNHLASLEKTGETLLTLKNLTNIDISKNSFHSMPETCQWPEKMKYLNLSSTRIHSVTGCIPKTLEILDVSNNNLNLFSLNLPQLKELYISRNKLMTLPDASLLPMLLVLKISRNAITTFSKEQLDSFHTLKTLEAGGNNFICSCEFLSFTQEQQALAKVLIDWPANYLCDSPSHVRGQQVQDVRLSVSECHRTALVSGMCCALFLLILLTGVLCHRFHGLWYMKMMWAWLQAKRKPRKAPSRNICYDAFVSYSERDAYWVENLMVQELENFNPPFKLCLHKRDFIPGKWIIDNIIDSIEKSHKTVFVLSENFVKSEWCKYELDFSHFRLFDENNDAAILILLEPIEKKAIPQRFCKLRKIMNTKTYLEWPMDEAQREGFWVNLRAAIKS
T2 sequence (Q15399 25-786): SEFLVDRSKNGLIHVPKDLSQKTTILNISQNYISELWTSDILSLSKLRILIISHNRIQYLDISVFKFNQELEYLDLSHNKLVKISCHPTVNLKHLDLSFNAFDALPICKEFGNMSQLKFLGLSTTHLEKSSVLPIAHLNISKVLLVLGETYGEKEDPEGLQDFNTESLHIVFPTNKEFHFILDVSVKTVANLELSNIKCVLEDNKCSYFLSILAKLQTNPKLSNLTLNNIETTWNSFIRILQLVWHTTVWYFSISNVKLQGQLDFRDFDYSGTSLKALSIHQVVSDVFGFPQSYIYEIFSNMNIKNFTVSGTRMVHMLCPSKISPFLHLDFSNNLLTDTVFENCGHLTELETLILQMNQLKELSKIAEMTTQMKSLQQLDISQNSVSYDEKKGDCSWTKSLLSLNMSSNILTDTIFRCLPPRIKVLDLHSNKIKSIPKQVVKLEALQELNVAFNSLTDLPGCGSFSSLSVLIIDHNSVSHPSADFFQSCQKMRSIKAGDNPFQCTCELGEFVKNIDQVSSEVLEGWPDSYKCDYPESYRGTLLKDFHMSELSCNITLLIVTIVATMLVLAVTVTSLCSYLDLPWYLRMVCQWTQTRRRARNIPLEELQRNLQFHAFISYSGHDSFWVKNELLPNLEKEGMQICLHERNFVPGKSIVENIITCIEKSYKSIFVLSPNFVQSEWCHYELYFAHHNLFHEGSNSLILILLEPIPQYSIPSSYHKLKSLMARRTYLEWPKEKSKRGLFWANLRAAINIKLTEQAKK
Description: NF-κB dual luciferase reporter assay in SW620 cells transfected with human TLR2+TLR1+CD14. As to conditions: human TLR2+TLR1+CD14, 6 h stimulation, normalised curves. How it is done:
as §2, §1
(In a reporter assay the amount or activity of a reporter protein is the signal.)

A further assay deals with equine TLR2/6. Description: NF-κB dual luciferase reporter assay in SW620 cells transfected with equine TLR2+TLR6+CD14. How it is done:
as §2, §1

The target in assay [1] is T3, human TLR2 (Homo sapiens, UniProt O60603). Nature of the assay: NF-κB reporter assay in HEK293 cells transfected with human TLR2 only (+CD14). The following applies: 20 ng/mL ligand, human TLR2 + human CD14, endogenous TLR1/6. How it is done: HEK293 cells were seeded at a density of 3 × 10^4 cells per well of a 96 well plate and transiently transfected 48 h later using JetPEI (Polyplus). For transfection, expression vectors containing cDNA encoding human TLR2, -1 and -6, and CD14, were mixed as appropriate. TLR cDNA-containing and CD14 cDNA-containing vectors were used at 1 ng/well. TLR constructs were replaced as appropriate with empty vector (pcDNA3) to balance the total added DNA amounts. pNF-κB-luc (10 ng/well) and ph-RG-TK (5 ng/well) were added to receptor mixtures, together with 10× TE and 150 mM NaCl to give a total volume of 50 μL per 10 wells. Following mixing of DNA, and per 10 wells, 2 μL JetPEI was added to 48 μL 150 mM NaCl. JetPEI/NaCl was added to the DNA mixtures at a 1:1 ratio and incubated for 30 min at room temperature. Following incubation, transfection mixtures were diluted to 1 mL per 10 wells in complete HEK medium. Old medium was removed from plated cells and replaced with the transfection/complete medium mixtures. […] Cells were stimulated for six hours, lysed using diluted PLB, and NF-κB activation measured by the dual luciferase reporter assay (Promega).
T3 sequence (O60603 21-784): as the sequence (O60603 21-784) above
(§3) Supplementary file 1297-9716-44-50-S1.pdf: Additional file 1 Expression of TLRs and responses to synthetic ligands of SW620 and HEK293 cells. […] (A) After 25 PCR cycles, TLR4 was detected in SW620, and TLR1 was detected in HEK293. […]

Assay [2] deals with T3, human TLR2. Nature of the assay: NF-κB reporter assay in SW620 cells transfected with human TLR2 only (+CD14). Further details: FLAG (from vector pFLAG-CMV); expressed in transfected cells; host or cells: SW620 (human). The following applies: 20 ng/mL ligand. How it is done:
SW620 cells (a gift from Richard Tapping, USA) were utilised for TLR2/1 and TLR2/6 transient transfection experiments, as, unlike HEK293 cells, they are 1) deficient in significant expression of all three receptors, and 2) poorly responsive to Pam2CSK4 and Pam3CSK4 without exogenously added TLRs (Additional file 1). […] SW620 cells were seeded at 3.75 × 10^4 cells per well of a 48 well plate and transiently transfected 24 hours later using Fugene 6 (Promega) at a ratio of 1 μg DNA: 4 μL Fugene 6. For transfection, expression vectors containing cDNA encoding human (in pFLAG-CMV) or equine (in pcDNA3) TLR2, -1 and -6, and CD14 (in pcDNA3), were mixed as appropriate. TLR cDNA-containing vectors were used at 2.5 ng/well; CD14 cDNA-containing vectors were used at 1.25 ng/well. TLR constructs were replaced with empty vector (pcDNA3), as appropriate, to balance total added DNA amounts. […] Cells were stimulated for six hours, lysed using diluted passive lysis buffer (PLB; Promega), and NF-κB activation measured by the dual luciferase reporter assay (Promega).
as §3

The structures appear in SMILES notation. Peptide text beside a SMILES is read from it. * marks the point of attachment. X1 = CCCCCCCCCCCCCCCC(=O)OCC(C*)OC(=O)CCCCCCCCCCCCCCC; Palmitoyl = CCCCCCCCCCCCCCCC(=O)*

T1 sequence (O60603 21-784): as above
T1 sequence (Q9Y2C9 32-796): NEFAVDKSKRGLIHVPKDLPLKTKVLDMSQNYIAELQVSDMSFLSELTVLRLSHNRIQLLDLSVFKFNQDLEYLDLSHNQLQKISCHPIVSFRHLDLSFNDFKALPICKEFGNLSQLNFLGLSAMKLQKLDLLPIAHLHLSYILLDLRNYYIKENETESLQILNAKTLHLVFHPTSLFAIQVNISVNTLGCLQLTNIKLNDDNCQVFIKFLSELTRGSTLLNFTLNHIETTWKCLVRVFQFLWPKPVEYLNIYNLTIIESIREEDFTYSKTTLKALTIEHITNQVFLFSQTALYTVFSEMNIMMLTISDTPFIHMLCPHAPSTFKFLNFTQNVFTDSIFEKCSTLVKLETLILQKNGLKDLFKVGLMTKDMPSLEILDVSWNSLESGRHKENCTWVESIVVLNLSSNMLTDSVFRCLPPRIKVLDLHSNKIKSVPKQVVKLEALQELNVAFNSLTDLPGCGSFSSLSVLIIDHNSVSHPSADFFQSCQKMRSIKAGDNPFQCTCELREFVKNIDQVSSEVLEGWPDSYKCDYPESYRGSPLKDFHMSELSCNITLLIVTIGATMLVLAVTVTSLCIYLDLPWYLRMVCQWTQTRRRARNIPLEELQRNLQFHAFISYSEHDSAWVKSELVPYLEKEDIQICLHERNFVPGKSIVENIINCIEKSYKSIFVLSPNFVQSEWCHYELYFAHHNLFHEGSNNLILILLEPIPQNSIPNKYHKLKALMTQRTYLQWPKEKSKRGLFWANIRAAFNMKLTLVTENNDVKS

By EC50 is commonly meant the concentration at which the effect is half-maximal. `CCCCCCCCCCCCCCCC(=O)OCC(CSC[C@H](N)C(=O)N[C@@H](CO)C(=O)N[C@@H](CCCCN)C(=O)N[C@@H](CCCCN)C(=O)N[C@@H](CCCCN)C(=O)N[C@@H](CCCCN)C(=O)O)OC(=O)CCCCCCCCCCCCCCC` (stereo partly shown) [Pam2CSK4] (H-C(X1)SKKKK-OH; N-terminus and C-terminus assumed): the EC50 was 0.43 ng/mL in the assay with equine TLR2/1; 0.0118 nM on human TLR2/6 (human TLR2+TLR6+CD14, 6 h stimulation, NF-κB luciferase, normalised curves); 3.31 nM at human TLR2/1; 0.010 ng/mL in the assay on equine TLR2/6 (equine TLR2+TLR6+CD14, 6 h stimulation, NF-κB luciferase, normalised curves). Also, the “potency at equine TLR2/1 relative to human TLR2/1” value in the assay with equine TLR2/1 (more potent at equine TLR2/1 than at human TLR2/1) is listed as 10 fold. Besides, at human TLR2 [1], the “NF-κB response of HEK293 with exogenous TLR2 only” value is recorded as “respond to both ligands”. Further, at human TLR2 [2], the “NF-κB response of SW620 with exogenous TLR2 only” value is reported as “respond weakly”.
As to `CCCCCCCCCCCCCCCC(=O)N[C@@H](CSCC(COC(=O)CCCCCCCCCCCCCCC)OC(=O)CCCCCCCCCCCCCCC)C(=O)N[C@@H](CO)C(=O)N[C@@H](CCCCN)C(=O)N[C@@H](CCCCN)C(=O)N[C@@H](CCCCN)C(=O)N[C@@H](CCCCN)C(=O)O` (stereo partly shown) [Pam3CSK4] (Palmitoyl-C(X1)SKKKK-OH; C-terminus assumed), the EC50 is 18.73 ng/mL with equine TLR2/1 and 0.311 nM on human TLR2/1. In addition, the “stimulation of human TLR2/6” value on human TLR2/6 (data not shown) is “failed to stimulate”. Also, the “stimulation of equine TLR2/6” value in the assay with equine TLR2/6 (data not shown) is recorded as “failed to stimulate”. Besides, the “NF-κB response of HEK293 with exogenous TLR2 only” value at human TLR2 [1] was “respond to both ligands”. Besides, the “NF-κB response of SW620 with exogenous TLR2 only” value on human TLR2 [2] is reported as “not”.
